The results in this text go back to ChEMBL document CHEMBL3751695, “Cationic lipid-conjugated hydrocortisone as selective antitumor agent” (Eur J Med Chem, 2016).

Activity calls are given as the source filed them. The rule behind the calls is not given here.

Data set [1] is described as follows: Induction of apoptosis in mouse NIH/3T3 cells assessed as late apoptotic cells at 20 uM after 24 hrs by annexin-V-FITC/propidium iodide staining based flow cytometry (reference value: 0.28 %). Format: cell-based. As to conditions: nih3t3, 24 h. In general terms: In flow cytometry, cells or beads pass a laser one at a time.
A short description of data set [2]: Cytotoxicity against mouse B16F10 cells after 72 hrs by MTT assay. Particulars: B16-F10, 72 h. Type of data set: functional, cell-based. Background: Tetrazolium assays rely on reduction of a dye to a coloured formazan, in cell work by metabolically active cells.
For data set [3], the system named is B16-F10. The experiment in a line: Antitumor activity in mouse B16F10 cells xenografted in C57BL/J mouse assessed as increase of apoptotic protein Bax level in tumor lysates at 10 mg/kg, ip by western blot analysis. Type of data set: functional, organism-based. As to conditions: Neoplasm, Lysate. (Immunoblotting shows a protein as a band on a membrane.)
In data set [4] the test system is MDA-MB-231. Description: Induction of apoptosis in human MDA-MB-231 cells assessed as early apoptotic cells at 20 uM after 24 hrs by annexin-V-FITC/propidium iodide staining based flow cytometry (reference value: 0.58 %). Format: functional.
Data set [5] has as its system B16-F10. The experiment in a line: Induction of apoptosis in mouse B16F10 cells assessed as increased Bax expression at 10 uM after 36 hrs by western blot analysis. Format: functional, cell-based.
Data set [6] concerns B16-F10. Description: Induction of apoptosis in mouse B16F10 cells assessed as increase in p53 expression at 20 uM after 36 hrs by […]. Format: functional, cell-based.
Data set [7] has as its system B16-F10. Description: Antitumor activity in mouse B16F10 cells xenografted in C57BL/J mouse assessed as decrease in VEGFR2 expression in tumor at 10 mg/kg, ip by immunohistochemical analysis. Type of data set: functional, organism-based.
Another data set concerns RAW264.7. Description: Induction of apoptosis in mouse RAW264.7 cells assessed as late apoptotic cells at 20 uM after 24 hrs by annexin-V-FITC/propidium iodide staining based flow cytometry (reference value: 5.64 %). Format: cell-based. As to conditions: raw264.7, 24 h.
Data set [8] relates to B16-F10. The experiment in a line: Induction of apoptosis in mouse B16F10 cells assessed as viable cells at 20 uM after 24 hrs by annexin-V-FITC/propidium iodide staining based flow cytometry (reference value: 93.66 %). Format: functional. Particulars: B16-F10, 24 h, read-out: Activity.
Data set [9] in a line: Cytotoxicity against human SKOV3 cells after 72 hrs by MTT assay. Format: functional, cell-based. Particulars: SK-OV-3, 72 h.
Data set [10] relates to B16-F10. The experiment in a line: Antitumor activity against mouse B16F10 cells xenografted in C57BL/J mouse assessed as inhibition of tumor growth at 10 mg/kg, ip. Type of data set: functional, organism-based.
Data set [11] has as its system B16-F10. The experiment in a line: Antitumor activity in mouse B16F10 cells xenografted in C57BL/J mouse assessed as increase of apoptotic protein cleaved caspase 7 level in tumor lysates at 10 mg/kg, ip by western blot analysis. Type of data set: functional, organism-based. As to conditions: Neoplasm, Lysate.
Data set [12] in a line: Induction of apoptosis in mouse NIH/3T3 cells assessed as viable cells at 20 uM after 24 hrs by annexin-V-FITC/propidium iodide staining based flow cytometry (reference value: 99.06 %). Type of data set: cell-based, NIH3T3. As to conditions: read-out: Activity.
Data set [13] can be described thus: Cell cycle arrest in mouse B16F10 cells assessed as accumulation at subG0/G1 phase at 20 uM after 24 hrs by propidium iodide staining based flow cytometry (reference value: 40.7 %). As to conditions: B16-F10. Format: functional.
A further data set deals with Mus musculus. Description: Toxicity in C57BL/J mouse xenografted with mouse B16F10 cells assessed as animal survival at 10 mg/kg, ip measured upto 45 days post tumor inoculation. Format: organism-based, B16-F10. Particulars: in vivo, 1080 h.
A further data set deals with A549. Description: Induction of apoptosis in human A549 cells assessed as viable cells at 20 uM after 24 hrs by annexin-V-FITC/propidium iodide staining based flow cytometry (reference value: 87.96 %). As to conditions: A549, 24 h, read-out: Activity. Type of data set: functional.
Data set [14] deals with MDA-MB-231. Description: Induction of apoptosis in human MDA-MB-231 cells assessed as necrotic cells at 20 uM after 24 hrs by annexin-V-FITC/propidium iodide staining based flow cytometry (reference value: 5.40 %). Type of data set: functional.
Data set [15] has as its system B16-F10. The experiment in a line: Induction of apoptosis in mouse B16F10 cells assessed as increase in cleaved caspase 3 level at 10 uM after 36 hrs by western blot analysis. Format: functional, cell-based.
Data set [16] relates to B16-F10. The experiment in a line: Induction of apoptosis in mouse B16F10 cells assessed as increase in ratio of Bax/Bcl2 level at 10 uM after 36 hrs by western blot analysis (reference value: 0.2). Type of data set: functional.
Data set [17] in a line: Induction of apoptosis in mouse NIH/3T3 cells assessed as necrotic cells at 20 uM after 24 hrs by annexin-V-FITC/propidium iodide staining based flow cytometry (reference value: 0.24 %). Type of data set: cell-based. As to conditions: nih3t3, 24 h.

The IC50 is the concentration that gives 50% inhibition. Regarding `CCCCCCCCCCCCCCCC[N+](C)(CCCCCCCCCCCCCCCC)CCNC(=O)[C@@]1(O)CC[C@H]2[C@@H]3CCC4=CC(=O)CC[C@]4(C)[C@H]3[C@@H](O)C[C@@]21C.[Cl-]`, the Activity is 0.55% in data set [1]; 4.62% in the data set with MDA-MB-231 [4]; 2.83% in the data set with RAW264.7; 15.1% in [13]; “Non-toxic” with Mus musculus; 4.45% in the data set on MDA-MB-231 [14]. In data set [17], the Activity was found to be 0.51%. Besides, the IC50 was 6.2 µM in data set [2] and 3.5 µM in [9]. The result in the data set with B16-F10 [3], in the data set with B16-F10 [5], with B16-F10 [6], with B16-F10 [11] and in the data set with B16-F10 [15] was Active. The inhibition entry with B16-F10 [7] and in the data set on B16-F10 [10] was “Active” each time. The viability at 20 µM with B16-F10 [8] was 57.4%; in the data set with A549 it was 25.1%. Further, the viability at 24 h, 20 µM in data set [12] came out at 90.4%. In the data set on B16-F10 [16], the Ratio was found to be 0.4.
